Measurements reported in US20230109758A1 (priority 2018, published 2023).

Assays:
[1] = system: C. beijerinckii DSM 6423; format: cell-based
[2] = system: C. beijerinckii DSM 6423 ΔcatB; format: cell-based

SMILES: CS(=O)(=O)c1ccc([C@@H](O)[C@@H](CO)NC(=O)C(Cl)Cl)cc1 [thiamphenicol]
- Growth on thiamphenicol-supplemented medium [1]: able to grow
- Growth on thiamphenicol-supplemented medium [2]: only the initial C. beijerinckii DSM 6423 strain is able to grow
